According to patent US4419123A, “Herbicidal 4-trifluoromethyl-3'-carbon-substituted-4'-substituted diphenyl ethers” (Rohm and Haas Company, priority 1981, dated 1983):

Key:
[1] = Preemergence herbicidal activity (% control) against monocot weeds; assay type: in vivo; settings: pre-emergence, 336 h, average, about two weeks after application, read-out: Herbicidal activity (% control), preemergence, monocots; for activity at 2241.7 g/ha: 2 lb./A.; for activity at 4483.4 g/ha: 4 lb./A.
Excerpt: (§1) barnyardgrass (Echinochloa crusgalli) crabgrass (Digitaria spp.) nutsedge (Cyperus esculentus)
(§2) At 2 and 4 pounds per acre:
(§3) **Bermudagrass (Cynodon dactylon)
(§4) *downy brome (Bromus tectorum) foxtail (Setaria faberii)
(§5) Johnsongrass (Sorghum halepense) […]
(§6) quackgrass (Agropyron repens)
(§7) *ryegrass (Lolium perenne)
(§8) *wild oats (Avena factua)
(§9) *yellow millet (Panicum miliaceum)
(§10) The following test procedure is employed.

[2] = Postemergence herbicidal activity (% control) against monocot weeds; assay type: in vivo; settings: post-emergence, 336 h, average, about two weeks after application, read-out: Herbicidal activity (% control), postemergence, monocots; for activity at 2241.7 g/ha: 2 lb./A.; for activity at 4483.4 g/ha: 4 lb./A.
Excerpt: as §1, §2, §3, §4, §5, §6, §7, §8, §9, §10

[3] = tested on: corn; test: Crop tolerance (selective herbicidal activity), corn; assay type: in vivo
Experimental: as §10
(§11) Following the general test procedure of Example 37, diphenyl ethers are evaluated for significant tolerance (as shown by 50% or less kill of the test crop at levels of application which give more than 50% kill of many or all of the weeds of Example 73) towards some or all of the following common agronomic crops (not all compounds tested against all crops): alfalfa, snapbeans, corn, cotton, cucumbers, peanuts, rape, rice, safflower, soybeans, tomatoes, and wheat.

[4] = tested on: rice; test: Crop tolerance (selective herbicidal activity), rice; assay type: in vivo; settings: postemergence applications or applications on transplanted rice
Experimental: as §10, §11

[5] = tested on: soybeans; test: Crop tolerance (selective herbicidal activity), soybeans; assay type: in vivo; settings: preemergence applications
Experimental: as §10, §11

[6] = Preemergence herbicidal activity (% control) against dicot weeds; settings: pre-emergence, 336 h
[7] = Postemergence herbicidal activity (% control) against dicot weeds; settings: post-emergence, 336 h
[8] = tested on: peanuts; test: Crop tolerance (selective herbicidal activity), peanuts; assay type: in vivo
Experimental: as §10, §11

[9] = read-out: Herbicidal activity (% control), preemergence, dicots, 2 lb./A., average, about two weeks after application
[10] = read-out: Herbicidal activity (% control), preemergence, dicots, 4 lb./A., average, about two weeks after application
[11] = read-out: Herbicidal activity (% control), postemergence, dicots, 4 lb./A., average, about two weeks after application
[12] = read-out: Herbicidal activity (% control), postemergence, dicots, 2 lb./A., average, about two weeks after application
[13] = read-out: Herbicidal activity (% control), preemergence, dicots
[14] = read-out: Herbicidal activity (% control), postemergence, dicots

Structure (SMILES)	activity at 2241.7 g/ha [1] [%]	activity at 4483.4 g/ha [1] [%]	activity at 2241.7 g/ha [2] [%]	activity at 4483.4 g/ha [2] [%]	Tolerance to corn ([3]; preemergence applications)	Tolerance to rice [4]	Tolerance to soybeans [5]	activity at 2241.7 g/ha [6, 9] [%]	activity at 4483.4 g/ha [6, 10] [%]	activity at 4483.4 g/ha [7, 11] [%]	activity at 2241.7 g/ha [7, 12] [%]	activity at 2241.7 g/ha [6, 13] [%]	activity at 4483.4 g/ha [6, 13] [%]	activity at 2241.7 g/ha [7, 14] [%]	activity at 4483.4 g/ha [7, 14] [%]	Tolerance to peanuts ([8]; postemergence applications)	Tolerance to corn ([3]; postemergence applications)	Tolerance to peanuts ([8]; preemergence applications)
O=[N+]([O-])c1ccc(Oc2ccc(C(F)(F)F)cc2Cl)cc1OCC(F)(F)F [Example 11]	88	81	100	82	Tolerance (significant tolerance (as shown by 50% or less kill of the test crop at levels of application which give more than 50% kill of many or all of the weeds of Example 73))	Tolerance (significant tolerance (as shown by 50% or less kill of the test crop at levels of application which give more than 50% kill of many or all of the weeds of Example 73))	Tolerance (significant tolerance (as shown by 50% or less kill of the test crop at levels of application which give more than 50% kill of many or all of the weeds of Example 73))	99	98	99	–	–	–	–	–	–	–	–
CN(C)c1cc(Oc2ccc(C(F)(F)F)cc2Cl)ccc1[N+](=O)[O-] [Example 20, 2-chloro-α,α,α-trifluoro-p-tolyl-3-dimethylamino-4-nitrophenyl ether]	80	88	80	78	–	Tolerance (significant tolerance (as shown by 50% or less kill of the test crop at levels of application which give more than 50% kill of many or all of the weeds of Example 73))	–	93	99	88	97	–	–	–	–	–	–	–
CC(=O)C(C)Oc1cc(Oc2ccc(C(F)(F)F)cc2Cl)ccc1[N+](=O)[O-] (centres unmarked) [Example 32]	81	86	100	86	–	–	–	–	100	100	–	–	–	–	–	–	–	–
CNC(=O)Oc1cc(Oc2ccc(C(F)(F)F)cc2Cl)ccc1[N+](=O)[O-] [Example 33]	79	53	65	32	–	–	–	–	–	–	–	74	99	100	98	–	–	–
O=C(CCl)Nc1cc(Oc2ccc(C(F)(F)F)cc2Cl)ccc1[N+](=O)[O-] [Example 35, 2-chloro-α,α,α-trifluoro-p-tolyl-3-chloroacetamido-4-nitrophenyl ether]	60	40	63	45	–	–	–	72	–	98	80	–	–	–	–	–	–	–
O=[N+]([O-])c1ccc(Oc2ccc(C(F)(F)F)cc2Cl)cc1Cl [Example 37, 2-chloro-α,α,α-trifluoro-p-tolyl-3-chloro-4-nitrophenyl ether]	100	99	100	92	–	–	–	–	100	100	–	–	–	–	–	Tolerance (significant tolerance (as shown by 50% or less kill of the test crop at levels of application which give more than 50% kill of many or all of the weeds of Example 73))	–	–
O=[N+]([O-])c1ccc(Oc2ccc(C(F)(F)F)cc2Cl)cc1OCC1CO1 (centres unmarked) [Example 38]	62	47	51	43	–	–	–	68	86	98	58	–	–	–	–	–	–	–
O=[N+]([O-])c1ccc(Oc2ccc(C(F)(F)F)cc2Cl)cc1OCC(O)CO (stereo not drawn) [Example 39, 2-chloro-α,α,α-trifluoro-p-tolyl-3-(2,3-dihydroxypropoxy)-4-nitrophenyl ether]	77	65	61	64	–	–	–	80	99	98	100	–	–	–	–	–	–	–
CCCN(CCC)c1cc(Oc2ccc(C(F)(F)F)cc2Cl)ccc1[N+](=O)[O-] [Example 41]	84	60	56	71	–	–	–	62	96	95	94	–	–	–	–	–	–	–
CS(=O)(=O)CCOc1cc(Oc2ccc(C(F)(F)F)cc2Cl)ccc1[N+](=O)[O-] [Example 42]	83	62	63	38	–	–	–	60	80	98	88	–	–	–	–	–	–	–
CN(CCO)c1cc(Oc2ccc(C(F)(F)F)cc2Cl)ccc1[N+](=O)[O-] [Example 43]	99	0	61	2	–	–	–	100	48	47	80	–	–	–	–	–	–	–
CNC(=O)Nc1cc(Oc2ccc(C(F)(F)F)cc2Cl)ccc1[N+](=O)[O-] [Example 44]	0	66	7	60	–	–	–	17	96	98	10	–	–	–	–	–	–	–
CCSC(=O)Nc1cc(Oc2ccc(C(F)(F)F)cc2Cl)ccc1[N+](=O)[O-] [Example 45]	68	13	53	17	–	–	–	77	58	88	78	–	–	–	–	–	–	–
CCSC(=O)N(C(=O)SCC)c1cc(Oc2ccc(C(F)(F)F)cc2Cl)ccc1[N+](=O)[O-] [Example 46]	34	0	0	0	–	–	–	87	20	30	4	–	–	–	–	–	–	–
N#Cc1cc(Oc2ccc(C(F)(F)F)cc2Cl)ccc1[N+](=O)[O-] [Example 47, 2-Chloro-α,α,α-trifluoro-p-tolyl-3-cyano-4-nitrophenyle ther]	80	61	24	11	–	–	–	–	40	72	84	–	–	–	–	–	–	–
COC(=O)c1cc(Oc2ccc(C(F)(F)F)cc2Cl)ccc1[N+](=O)[O-] [Example 49, 2-chloro-α,α,α-trifluoro-p-tolyl-3-carbomethoxy-4-nitrophenyl ether]	100	92	77	86	–	–	Tolerance (significant tolerance (as shown by 50% or less kill of the test crop at levels of application which give more than 50% kill of many or all of the weeds of Example 73))	100	95	100	100	–	–	–	–	–	Tolerance (significant tolerance (as shown by 50% or less kill of the test crop at levels of application which give more than 50% kill of many or all of the weeds of Example 73))	Tolerance (significant tolerance (as shown by 50% or less kill of the test crop at levels of application which give more than 50% kill of many or all of the weeds of Example 73))
CC(Oc1cc(Oc2ccc(C(F)(F)F)cc2Cl)ccc1[N+](=O)[O-])C(N)=O (stereo not drawn) [Example 51, 2-chloro-α,α,α-trifluoro-p-tolyl-3-(1-carbamoylethoxy)-4-nitrophenyl ether]	96	79	86	75	–	–	–	100	100	100	98	–	–	–	–	–	–	–
CCN(C(=O)NC)c1cc(Oc2ccc(C(F)(F)F)cc2Cl)ccc1[N+](=O)[O-] [Example 55, 2-Chloro-α,α,α-trifluoro-p-tolyl-3-(3-methyl-1-ethylureido)-4-nitrophenyl ether]	–	91	31	69	–	–	–	–	73	95	96	–	–	–	–	–	–	–
